Laboratory results taken from patent publication US10004701B2, “Methods and compositions for treating infection” (UNIVERSITY OF ROCHESTER, priority 2012, dated 2018).
Structures can show the parent of a compound that is named as a salt. Where two headings read alike, the source gives them in different places.

What was measured:
Assay in all cases: AK assay 384-well format, Prestwick library screening
E. faecium = format: cell-based, Enterococcus faecium; conditions: 50 μM final drug concentration; for fold induction at 50 µM: Enterococcus faecium, 3 h
[1] = tested on: S. aureus strain USA300-0114; format: cell-based, Staphylococcus aureus; conditions: 50 μM final drug concentration; for fold induction at 50 µM: Staphylococcus aureus, USA300, 3 h
K. pneumoniae = format: cell-based, Klebsiella pneumoniae; conditions: 50 μM final drug concentration; for fold induction at 50 µM: Klebsiella pneumoniae, 3 h
[2] = tested on: A. baumannii strain 98-37-09; format: cell-based, Acinetobacter baumannii; conditions: 50 μM final drug concentration; for fold induction at 50 µM: Acinetobacter baumannii, 983709, 3 h
P. aeruginosa = format: cell-based, Pseudomonas aeruginosa; conditions: 50 μM final drug concentration; for fold induction at 50 µM: Pseudomonas aeruginosa, 3 h
E. cloacae = format: cell-based, Enterobacter cloacae; conditions: 50 μM final drug concentration; for fold induction at 50 µM: Enterobacter cloacae, 3 h
E. coli = format: cell-based, Escherichia coli; conditions: 50 μM final drug concentration; for fold induction at 50 µM: Escherichia coli, 3 h
[3] = cutoff for positive-scoring molecules 3-fold increase, read-out: AK-based Prestwick Library Screening Results, E. faecium (fold increase in extracellular AK activity)
[4] = cutoff for positive-scoring molecules 3-fold increase, read-out: AK-based Prestwick Library Screening Results, S. aureus (fold increase in extracellular AK activity)
[5] = cutoff for positive-scoring molecules 3-fold increase, read-out: AK-based Prestwick Library Screening Results, K. pneumoniae (fold increase in extracellular AK activity)
[6] = cutoff for positive-scoring molecules 3-fold increase, read-out: AK-based Prestwick Library Screening Results, A. baumannii (fold increase in extracellular AK activity)
[7] = cutoff for positive-scoring molecules 3-fold increase, read-out: AK-based Prestwick Library Screening Results, P. aeruginosa (fold increase in extracellular AK activity)
[8] = cutoff for positive-scoring molecules 3-fold increase, read-out: AK-based Prestwick Library Screening Results, E. cloacae (fold increase in extracellular AK activity)
[9] = cutoff for positive-scoring molecules 3-fold increase, read-out: AK-based Prestwick Library Screening Results, E. coli (fold increase in extracellular AK activity)
[10] = planktonic E. faecium, 384-well, cutoff for positive-scoring molecules 3-fold increase, read-out: AK-based Prestwick Library Screening Results: E. faecium (increase in extracellular AK activity)
[11] = planktonic S. aureus, 384-well, cutoff for positive-scoring molecules 3-fold increase, read-out: AK-based Prestwick Library Screening Results: S. aureus (increase in extracellular AK activity)
[12] = planktonic K. pneumoniae, 384-well, cutoff for positive-scoring molecules 3-fold increase, read-out: AK-based Prestwick Library Screening Results: K. pneumoniae (increase in extracellular AK activity)
[13] = planktonic A. baumannii, 384-well, cutoff for positive-scoring molecules 3-fold increase, read-out: AK-based Prestwick Library Screening Results: A. baumannii (increase in extracellular AK activity)
[14] = planktonic P. aeruginosa, 384-well, cutoff for positive-scoring molecules 3-fold increase, read-out: AK-based Prestwick Library Screening Results: P. aeruginosa (increase in extracellular AK activity)
[15] = planktonic E. cloacae, 384-well, cutoff for positive-scoring molecules 3-fold increase, read-out: AK-based Prestwick Library Screening Results: E. cloacae (increase in extracellular AK activity)
[16] = planktonic E. coli, 384-well, cutoff for positive-scoring molecules 3-fold increase, read-out: AK-based Prestwick Library Screening Results: E. coli (increase in extracellular AK activity)
[17] = planktonic E. faecium, cutoff for positive-scoring molecules 3-fold increase, read-out: AK-based Prestwick Library Screening Results, E. faecium (increase in extracellular AK activity)
[18] = planktonic S. aureus, cutoff for positive-scoring molecules 3-fold increase, read-out: AK-based Prestwick Library Screening Results, S. aureus (increase in extracellular AK activity)
[19] = planktonic K. pneumoniae, cutoff for positive-scoring molecules 3-fold increase, read-out: AK-based Prestwick Library Screening Results, K. pneumoniae (increase in extracellular AK activity)
[20] = planktonic A. baumannii, cutoff for positive-scoring molecules 3-fold increase, read-out: AK-based Prestwick Library Screening Results, A. baumannii (increase in extracellular AK activity)
[21] = planktonic P. aeruginosa, cutoff for positive-scoring molecules 3-fold increase, read-out: AK-based Prestwick Library Screening Results, P. aeruginosa (increase in extracellular AK activity)
[22] = planktonic E. cloacae, cutoff for positive-scoring molecules 3-fold increase, read-out: AK-based Prestwick Library Screening Results, E. cloacae (increase in extracellular AK activity)
[23] = planktonic E. coli, cutoff for positive-scoring molecules 3-fold increase, read-out: AK-based Prestwick Library Screening Results, E. coli (increase in extracellular AK activity)

## O=C(O)CCC(=O)Nc1ccc(S(=O)(=O)Nc2nccs2)cc1 [Succinylsulfathiazole]
E. faecium; [3]
  fold induction at 50 µM: 1
[1]; [4]
  fold induction at 50 µM: 1.3
K. pneumoniae; [5]
  fold induction at 50 µM: 1.1
[2]; [6]
  fold induction at 50 µM: 1.3
P. aeruginosa; [7]
  fold induction at 50 µM: 1.1
E. cloacae; [8]
  fold induction at 50 µM: 1.4
E. coli; [9]
  fold induction at 50 µM: 1.4

## CCCCN1CCCCC1C(=O)Nc1c(C)cccc1C (centres unmarked) [Bupivacaine hydrochloride]
E. faecium; [10]
  fold induction at 50 µM: 1
[1]; [11]
  fold induction at 50 µM: 1.1
K. pneumoniae; [12]
  fold induction at 50 µM: 1
[2]; [13]
  fold induction at 50 µM: 1.4
P. aeruginosa; [14]
  fold induction at 50 µM: 1.2
E. cloacae; [15]
  fold induction at 50 µM: 1.5
E. coli; [16]
  fold induction at 50 µM: 1.3

## COc1cc2c(cc1OC)-c1cc3ccc(OC)c(OC)c3c[n+]1CC2 [Palmatine chloride]
E. faecium; [17]
  fold induction at 50 µM: 1
[1]; [18]
  fold induction at 50 µM: 0.8
K. pneumoniae; [19]
  fold induction at 50 µM: 0.5
[2]; [20]
  fold induction at 50 µM: 0.7
P. aeruginosa; [21]
  fold induction at 50 µM: 0.7
E. cloacae; [22]
  fold induction at 50 µM: 0.9
E. coli; [23]
  fold induction at 50 µM: 0.7

## Cc1cnc(C(=O)NCCc2ccc(S(=O)(=O)NC(=O)NC3CCCCC3)cc2)cn1 [Glipizide]
E. faecium; [10]
  fold induction at 50 µM: 0.9
[1]; [11]
  fold induction at 50 µM: 1.2
K. pneumoniae; [12]
  fold induction at 50 µM: 0.8
[2]; [13]
  fold induction at 50 µM: 1
P. aeruginosa; [14]
  fold induction at 50 µM: 1
E. cloacae; [15]
  fold induction at 50 µM: 1.3
E. coli; [16]
  fold induction at 50 µM: 1.2

## C[C@@H]1CN([C@H]2CC[C@](C#N)(c3ccc(F)cc3)CC2)CC[C@]1(C(=O)O)c1ccccc1 [Levocabastine hydrochloride]
E. faecium; planktonic E. faecium, positive cutoff 3-fold increase, read-out: AK-based Prestwick library screening result, E. faecium (fold increase in extracellular AK activity)
  fold induction at 50 µM: 1
[1]; planktonic S. aureus, positive cutoff 3-fold increase, read-out: AK-based Prestwick library screening result, S. aureus (fold increase in extracellular AK activity)
  fold induction at 50 µM: 1.1
K. pneumoniae; planktonic K. pneumoniae, positive cutoff 3-fold increase, read-out: AK-based Prestwick library screening result, K. pneumoniae (fold increase in extracellular AK activity)
  fold induction at 50 µM: 1.1
[2]; planktonic A. baumannii, positive cutoff 3-fold increase, read-out: AK-based Prestwick library screening result, A. baumannii (fold increase in extracellular AK activity)
  fold induction at 50 µM: 1.2
P. aeruginosa; planktonic P. aeruginosa, positive cutoff 3-fold increase, read-out: AK-based Prestwick library screening result, P. aeruginosa (fold increase in extracellular AK activity)
  fold induction at 50 µM: 1
E. cloacae; planktonic E. cloacae, positive cutoff 3-fold increase, read-out: AK-based Prestwick library screening result, E. cloacae (fold increase in extracellular AK activity)
  fold induction at 50 µM: 1.6
E. coli; planktonic E. coli, positive cutoff 3-fold increase, read-out: AK-based Prestwick library screening result, E. coli (fold increase in extracellular AK activity)
  fold induction at 50 µM: 1.1

## C[N+]1(CCCCC[N+]2(C)CCCC2)CCCC1.O=C([O-])C(O)C(O)C(=O)O.O=C([O-])C(O)C(O)C(=O)O [Pentolinium bitartrate]
E. faecium; 384-well format, […]
  AK-based Prestwick Library Screening Results, E. faecium (increase in extracellular AK activity): 0.9
[1]; 384-well format, […]
  AK-based Prestwick Library Screening Results, S. aureus (increase in extracellular AK activity): 0.7
K. pneumoniae; 384-well format, […]
  AK-based Prestwick Library Screening Results, K. pneumoniae (increase in extracellular AK activity): 0.7
[2]; 384-well format, […]
  AK-based Prestwick Library Screening Results, A. baumannii (increase in extracellular AK activity): 1.0
P. aeruginosa; 384-well format, […]
  AK-based Prestwick Library Screening Results, P. aeruginosa (increase in extracellular AK activity): 1.0
E. cloacae; 384-well format, […]
  AK-based Prestwick Library Screening Results, E. cloacae (increase in extracellular AK activity): 1.1
E. coli; 384-well format, […]
  AK-based Prestwick Library Screening Results, E. coli (increase in extracellular AK activity): 0.8

## C[C@]12C[C@H](O)[C@H]3[C@@H](CCC4=CC(=O)CC[C@@]43C)[C@@H]1CC[C@@H]2C(=O)CO [Corticosterone]
E. faecium; [17]
  fold induction at 50 µM: 0.9
[1]; [18]
  fold induction at 50 µM: 0.6
K. pneumoniae; [19]
  fold induction at 50 µM: 0.7
[2]; [20]
  fold induction at 50 µM: 0.9
P. aeruginosa; [21]
  fold induction at 50 µM: 0.8
E. cloacae; [22]
  fold induction at 50 µM: 1.2
E. coli; [23]
  fold induction at 50 µM: 0.9

## COC(=O)[C@H]1[C@H]2C[C@@H]3c4[nH]c5cc(OC)ccc5c4CCN3C[C@H]2C[C@@H](OC(=O)/C=C/c2cc(OC)c(OC)c(OC)c2)[C@@H]1OC [Rescinnamin]
E. faecium; planktonic E. faecium, cutoff for positive-scoring molecules 3-fold increase
  AK-based Prestwick Library Screening Results, E. faecium (increase in extracellular AK activity): 1.0
[1]; planktonic S. aureus, cutoff for positive-scoring molecules 3-fold increase
  AK-based Prestwick Library Screening Results, S. aureus (increase in extracellular AK activity): 0.3
K. pneumoniae; planktonic K. pneumoniae, cutoff for positive-scoring molecules 3-fold increase
  AK-based Prestwick Library Screening Results, K. pneumoniae (increase in extracellular AK activity): 0.6
[2]; planktonic A. baumannii, cutoff for positive-scoring molecules 3-fold increase
  AK-based Prestwick Library Screening Results, A. baumannii (increase in extracellular AK activity): 1.1
P. aeruginosa; planktonic P. aeruginosa, cutoff for positive-scoring molecules 3-fold increase
  AK-based Prestwick Library Screening Results, P. aeruginosa (increase in extracellular AK activity): 0.4
E. cloacae; planktonic E. cloacae, cutoff for positive-scoring molecules 3-fold increase
  AK-based Prestwick Library Screening Results, E. cloacae (increase in extracellular AK activity): 0.6
E. coli; planktonic E. coli, cutoff for positive-scoring molecules 3-fold increase
  AK-based Prestwick Library Screening Results, E. coli (increase in extracellular AK activity): 0.7

## CC(=O)Nc1cc2ccccc2oc1=O [Compound 3-Acetamidocoumarin, 3-Acetamidocoumarin]
E. faecium; [3]
  fold induction at 50 µM: 0.8
[1]; [4]
  fold induction at 50 µM: 0.4
K. pneumoniae; [5]
  fold induction at 50 µM: 0.4
[2]; [6]
  fold induction at 50 µM: 0.4
P. aeruginosa; [7]
  fold induction at 50 µM: 0.4
E. cloacae; [8]
  fold induction at 50 µM: 0.4
E. coli; [9]
  fold induction at 50 µM: 0.5

## COc1cc2c(cc1O)[C@@H]1Cc3ccc(OC)c(O)c3CN1CC2 [Scoulerine]
E. faecium; planktonic, […], read-out: AK-based Prestwick Library Screening Results, E. faecium (fold increase in extracellular AK activity)
  fold induction at 50 µM: 1
[1]; planktonic, […], read-out: AK-based Prestwick Library Screening Results, S. aureus (fold increase in extracellular AK activity)
  fold induction at 50 µM: 1
K. pneumoniae; planktonic, […], read-out: AK-based Prestwick Library Screening Results, K. pneumoniae (fold increase in extracellular AK activity)
  fold induction at 50 µM: 1
[2]; planktonic, […], read-out: AK-based Prestwick Library Screening Results, A. baumannii (fold increase in extracellular AK activity)
  fold induction at 50 µM: 1.3
P. aeruginosa; planktonic, […], read-out: AK-based Prestwick Library Screening Results, P. aeruginosa (fold increase in extracellular AK activity)
  fold induction at 50 µM: 1.1
E. cloacae; planktonic, […], read-out: AK-based Prestwick Library Screening Results, E. cloacae (fold increase in extracellular AK activity)
  fold induction at 50 µM: 1.6
E. coli; planktonic, […], read-out: AK-based Prestwick Library Screening Results, E. coli (fold increase in extracellular AK activity)
  fold induction at 50 µM: 1.2

## C=CC(N)CCC(=O)O (centres unmarked) [Vigabatrin]
E. faecium; [17]
  fold induction at 50 µM: 0.9
[1]; [18]
  fold induction at 50 µM: 0.7
K. pneumoniae; [19]
  fold induction at 50 µM: 0.8
[2]; [20]
  fold induction at 50 µM: 1.1
P. aeruginosa; [21]
  fold induction at 50 µM: 0.9
E. cloacae; [22]
  fold induction at 50 µM: 0.8
E. coli; [23]
  fold induction at 50 µM: 1
